Source: PubChem BioAssay (NCI)
Several values for one entry are separate records, joined by “and”; a condition that tells them apart may be missing. Identical values can stand only once.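 48-hour exposure; five concentrations; linearly interpolated endpoints. GI50 is the concentration that inhibits growth by half. At the TGI there is no net growth.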

Key:
Assay in all cases: NCI anticancer screen, dose series, 48 h
[1] = tested on: DU-145 prostate
[2] = tested on: HS 578T breast
[3] = tested on: MDA-N
[4] = tested on: NCI/ADR-RES ovarian
[5] = tested on: DLD-1 colon
[6] = tested on: KM20L2 colon
[7] = tested on: LXFL 529 NSCLC
[8] = tested on: SNB-78 CNS

SMILES | TGI [1] | TGI [2] | TGI [4] | TGI [5] [µM] | TGI [6] [µM] | TGI [7] [µM] | TGI [8] [µM] | GI50 [1] | GI50 [2] | GI50 [4] | also measured
Cc1ccc(NC(c2ccccc2)c2ccc3cccnc3c2O)cc1 (stereo not drawn) | 23.4 µM | 61.3 µM | 15.2 µM |  |  |  |  |  |  |  | TGI [3]: 17.7 µM
CN(C)c1ccc(-c2cc(=O)c3ccccc3[nH]2)cc1 |  |  |  | > 100 | > 100 | > 100 | > 100 |  |  |  | 
COc1ccc(C(=O)/C=C/c2ccc(O)c(O)c2F)c(OC)c1 | 16.2 µM and 19 µM | 75 µM and > 100 µM | 67.7 µM and > 100 µM |  |  |  |  | 5.38 µM | 7340 nM | 4.16 µM | GI50 [3]: 2380 nM; TGI [3]: 27.2 µM and 25.8 µM
CC(C)C[C@@H](NC(=O)[C@@H](Cc1ccccc1)NC(=O)c1cnccn1)B1O[C@H]2[C@H](O)[C@@H](C(=O)NCCCC[C@@H]3NC(=O)[C@@H](Cc4ccccc4)NC(=O)[C@H](CC(=O)O)NC(=O)CNC(=O)[C@H](CCCN=C(N)N)NC3=O)O[C@@H](CN)[C@H]2O1 | 5.36 µM |  | 0.586 µM |  |  |  |  | 0.00662 µM and 0.005 µM | 4.13 nM and 5 nM | 0.0984 µM and 0.0844 µM | 
CN(C)CCCCN1CCc2c(n(C)c3ccccc23)C1=O | > 100 µM | > 89.4 µM | > 100 µM | > 100 | > 72.9 | 35.1 | > 100 |  |  |  | TGI [3]: 18.3 µM and 34.2 µM
COc1nc2c(OC)cccc2c(OC)c1C=O |  |  |  |  | > 100 |  |  |  |  |  | 
O=C1c2ccccc2-c2c1c1ccccc1c(=O)n2CCCNCCCn1c2c(c3ccccc3c1=O)C(=O)c1ccccc1-2 | 5.85 µM | 32.9 µM | 17.3 µM |  |  |  |  | 1.49 µM | 9540 nM | 3.94 µM | 
COc1ccc(CN2C(=O)/C(=C\c3cc(OC)c(OC)c(OC)c3)c3cc(OC)ccc32)cc1 | 7.64 µM | 8.72 µM | 9.11 µM |  |  |  |  | 2.96 µM | 2400 nM | 2.69 µM | 
N#CC1=C(N)Oc2cc3c(cc2C1c1cccs1)OCO3 (stereo not drawn) | > 100 µM |  | 0.707 µM |  |  |  |  | 0.824 µM | 411 nM | 0.232 µM | 
CCC1=C(C)/C(=C/c2[nH]c(C)c(C(=O)CCCCC(=O)OC)c2C)N=C1c1ccc[nH]1 | 24.6 µM | 50.4 µM | > 96.4 µM |  |  |  |  | 12.2 µM | 14700 nM | 33.2 µM | 
CCn1c(=O)c(-c2ccn[nH]2)cc2c(C)nc(N)nc21 | > 100 µM | 2.38 µM | > 100 µM |  |  |  |  | 2.34 µM | 350 nM | 1.4 µM | 
O=C1c2ccccc2-c2c1c1ccccc1c(=O)n2Cc1ccco1 | > 100 µM | > 100 µM | > 100 µM |  |  |  |  |  |  |  | TGI [3]: > 100 µM
Oc1cccc2c1NC1=C(CCC/C1=C\c1ccccc1)C2 |  |  |  |  | > 100 | > 100 |  |  |  |  | 
COc1ccc2[nH]cc(CCNC(C)=O)c2c1 |  |  |  | > 100 | > 100 | > 100 | > 100 |  |  |  | 
O=S(=O)([O-])[O-].[OH3+].[OH3+].[OH3+].[Ru+2].c1ccccc1 |  |  |  | > 100 |  | > 100 | > 100 |  |  |  | GI50 [5]: > 100 µM; GI50 [7]: > 100 µM; GI50 [8]: > 100 µM
Cc1cc2c(cc1C)NC(=O)C(NC(=O)/C=C/c1ccccc1)C=N2 (stereo not drawn) |  |  |  | > 100 | > 100 | > 100 | > 100 |  |  |  | 
O=C1C=CC(=O)c2c1ccc1c3ccccc3n(-c3ccccn3)c21 |  |  |  | 30.6 |  | 28.5 | > 100 |  |  |  | 

SMILES | TGI [1] | TGI [2] | TGI [4] | TGI [5] [µM] | TGI [6] [µM] | TGI [7] [µM] | TGI [8] [µM] | GI50 [1] | GI50 [2] | GI50 [4] | also measured
Nc1ccccc1C#CC#Cc1ccccc1N |  |  | 29.7 µM |  |  |  |  |  |  | 4.63 µM | 
CN1CCN(Cc2ccc(-c3cc4ncnc(Nc5ccc(OCc6cccc(F)c6)c(Cl)c5)c4s3)o2)CC1 | 7.47 µM | 12.7 µM | 9.32 µM |  |  |  |  | 4.03 µM | 5570 nM | 4.32 µM | 
CC(C)(C)[Si](C)(C)OCC1CCC(n2cnc3c(NC(=O)c4ccccc4)ncnc32)O1 (stereo not drawn) | 37 µM | 33 µM | 33.4 µM |  |  |  |  |  |  |  | TGI [3]: 30.9 µM
CCNC(=O)C[C@@H]1N=C(c2ccc(Cl)cc2)c2cc(OC)ccc2-n2c(C)nnc21 | > 100 µM | > 41.5 µM | > 100 µM |  |  |  |  | > 100 µM | 796 nM | > 56 µM | 
CCOC(=N)CC(=O)Nc1ccc(Cl)cc1 |  |  |  | > 100 | > 100 | > 100 | > 100 |  |  |  | 
CNc1ccccc1C(=O)N/N=C/C=C/c1ccccc1 | > 57.6 µM | > 100 µM | > 100 µM |  |  |  |  | 3.47 µM | 1970 nM | 0.568 µM | 
C[Si](C)(C)C#CCO[Si](C)(C)C | > 100 µM | > 100 µM | > 100 µM |  |  |  |  |  |  |  | TGI [3]: > 100 µM
COC(=O)c1c[nH]cc1CCc1c[nH]cc1C(=O)OC |  |  |  |  | > 100 | > 100 | > 100 |  |  |  | 
O=C(Nc1ccc(-c2nc3cc4ccccc4cc3[nH]2)cc1)c1cccc(Br)c1 | 19.1 µM | 46.2 µM | 58.6 µM |  |  |  |  | 3.03 µM | 14300 nM | 15.3 µM | 
CCN1C(=O)C/C(=C\C(C)=O)Nc2ccccc21 | > 100 µM | > 100 µM | > 100 µM | 44.7 |  | > 100 | > 100 | > 100 µM | > 100000 nM | > 100 µM | 
O=C(Nc1ccc(Cl)c([N+](=O)[O-])c1)Nc1nc2ccccc2s1 | 14.6 µM | 12.3 µM | 11.9 µM |  |  |  |  | 4.22 µM | 2850 nM | 2.86 µM | 
CCNc1nnc(CSc2nc(-c3ccccc3)c(-c3ccccc3)[nH]2)s1 |  |  |  | 52.7 | 46.1 | 64.8 | 96.3 |  |  |  | 
C/C(=N\NC(=S)N1CCCCCC1)c1nccnc1C |  |  |  | > 100 | > 100 | > 100 | > 100 |  |  |  | 
COc1cc2oc(=O)cc(C)c2cc1[N+](=O)[O-] | > 100 µM | > 90.3 µM | > 79.3 µM |  |  |  |  |  |  |  | TGI [3]: 28.4 µM
C=CC1(C)CCC(C(C)C(=O)C(C=C(C)C)OC(C)=O)C12C(=O)Oc1ccccc1C2=O (stereo not drawn) |  |  |  | > 100 | > 100 | > 100 | > 100 |  |  |  | 
S=CN1CCCCC1 | > 100 µM | > 100 µM | > 100 µM |  |  |  |  |  |  |  | TGI [3]: > 100 µM
